Reference: BindingDB's records for doi:10.1021/jm060662k (Abbott Laboratories, 2006)

Target: T1, D(4) dopamine receptor (Homo sapiens, UniProt P21917)
T1 sequence (P21917 whole entry): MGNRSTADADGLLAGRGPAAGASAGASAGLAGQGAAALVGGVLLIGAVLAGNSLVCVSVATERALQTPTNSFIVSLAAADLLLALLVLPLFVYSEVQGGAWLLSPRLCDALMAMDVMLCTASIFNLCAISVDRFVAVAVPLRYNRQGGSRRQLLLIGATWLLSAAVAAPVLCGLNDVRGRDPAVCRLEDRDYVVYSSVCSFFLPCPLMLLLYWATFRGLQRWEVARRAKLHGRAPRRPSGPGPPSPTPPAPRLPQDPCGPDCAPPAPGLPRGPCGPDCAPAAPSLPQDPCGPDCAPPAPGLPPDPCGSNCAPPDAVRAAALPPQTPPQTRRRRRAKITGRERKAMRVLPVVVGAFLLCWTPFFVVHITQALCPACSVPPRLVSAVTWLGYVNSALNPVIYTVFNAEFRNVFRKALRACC
Assay: Agonist activity at human D4.4 receptor in HEK293 cells coexpressing G-alpha-qo5 by FLIPR

EC50: 12 nM
SMILES: c1ccc(N2CCN(Cc3nc4ccccc4[nH]3)CC2)nc1 [2-((4-(pyridin-2-yl)piperazin-1-yl)methyl)-1H-benzo[d]imidazole]
